# Reference: US12473295B2, “Substituted straight chain spiro derivatives” (Janssen Pharmaceutica NV, priority 2019, dated 2025)
# Structures can show the parent of a compound that is named as a salt. Where two headings read alike, the source gives them in different places.
# What was measured:
# [1] = molecular target: menin/MLL (terbium chelate-labeled menin, FITC-MBM1 peptide) (Homo sapiens (Human), UniProt O00255); assay: Menin/MLL homogenous time-resolved fluorescence (HTRF) assay; assay type: binding;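 further: IC50 from percent inhibition of HTRF signal, normalized between wells without competitor and wells with a saturating competitor that displaces FITC-MBM1 from His-tagged menin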
# Sequence of menin/MLL (terbium chelate-labeled menin, FITC-MBM1 peptide) (O00255 other isoform, or with tags, fused parts or gaps): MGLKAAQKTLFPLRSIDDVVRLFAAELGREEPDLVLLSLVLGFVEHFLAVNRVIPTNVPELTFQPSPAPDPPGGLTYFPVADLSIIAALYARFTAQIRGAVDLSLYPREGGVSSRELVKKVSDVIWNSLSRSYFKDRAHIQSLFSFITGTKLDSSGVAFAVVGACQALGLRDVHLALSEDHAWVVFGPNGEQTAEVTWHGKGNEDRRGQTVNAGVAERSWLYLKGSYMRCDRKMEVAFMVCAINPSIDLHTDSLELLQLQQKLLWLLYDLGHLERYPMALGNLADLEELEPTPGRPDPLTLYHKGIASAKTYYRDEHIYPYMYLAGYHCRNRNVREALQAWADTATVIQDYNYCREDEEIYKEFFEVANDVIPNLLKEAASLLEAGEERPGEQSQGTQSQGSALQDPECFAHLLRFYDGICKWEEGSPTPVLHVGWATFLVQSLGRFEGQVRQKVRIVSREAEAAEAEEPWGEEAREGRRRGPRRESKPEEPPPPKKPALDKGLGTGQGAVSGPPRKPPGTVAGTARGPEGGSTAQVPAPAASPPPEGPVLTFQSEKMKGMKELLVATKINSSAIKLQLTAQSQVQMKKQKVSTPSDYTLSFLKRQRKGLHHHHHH
# MOLM14 cells = assay: Proliferation assay (spheroid growth, 8 days), MOLM14; assay type: cell-based, human; details: MOLM14, 8 days, read-out: spheroid assay_OneTime MOLM14 IC50;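 further: spheroid size read as confluence by live-cell imaging, compounds added at a range of concentrations with 0.3% DMSO, DMSO-treated wells = 0%, highest reference dose = low control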
# OCI-AML3 cells = assay: Proliferation assay (spheroid growth, 8 days), OCI-AML3; assay type: cell-based, human; details: OCI-AML3, 8 days
# Method: (§1) The anti-proliferative effect of menin/MLL protein/protein interaction inhibitor test compounds was assessed in human leukemia cell lines. The cell line MOLM14 harbors a MLL translocation and expresses the MLL fusion protein MLL-AF9, respectively, as well as the wildtype protein from the second allele. OCI-AML3 cells that carry the NPM1c gene mutation were also tested. […] KO-52 was used as a control cell line containing two MLL (KMT2A) wildtype alleles in order to exclude compounds that display general cytotoxic effects.
# (§2) KO-52 and OCI-AML3 cell lines were propagated in alpha-MEM (Sigma Aldrich) supplemented with 20% heat-inactivated fetal bovine serum (HyClone), 2 mM L-glutamine (Sigma Aldrich) and 50 μg/ml gentamycin (Gibco).
# (§3) In order to assess the anti-proliferative effects, 200 MOLM14 cells, 200 OCI-AML3 cells or 300 KO-52 cells were seeded in 200 μl media per well in […] round bottom, ultra-low attachment plates (Costar, catalogue number 7007). Cell seeding numbers were chosen based on growth curves to ensure linear growth throughout the experiment. Test compounds were added at different concentrations and the DMSO content was normalized to 0.3%. Cells were incubated for 8 days at 37° C. and 5% CO2. Spheroid like growth was measured in real-time by live-cell imaging (IncuCyteZOOM, Essenbio, 4× objective) acquiring images at day 8. Confluence (%) as a measure of spheroid size was determined using an integrated analysis tool.
# (§4) In order to determine the effect of the test compounds over time, the confluence in each well as a measure of spheroid size, was calculated. Confluence of the highest dose of a reference compound was used as baseline for the LC (Low control) and the confluence of DMSO treated cells was used as 0% cytotoxicity (High Control, HC).
# (§5) GraphPad Prism(version 7.00) was used to calculate the IC50. Dose-response equation was used for the plot of % Effect vs Log 10 compound concentration with a variable slope and fixing the maximum to 100% and the minimum to 0%.
# KO-52 cells = assay: Proliferation assay (spheroid growth, 8 days), KO-52 control cell line; assay type: cell-based, human; details: read-out: spheroid assay_OneTime KO-52 IC50
# Method: as §1, §2, §3, §4, §5
# MEIS1 mRNA = MEIS1 mRNA expression assay (Quantigene Singleplex) in MOLM14 cells; assay type: cell-based, human; details: 48 hours incubation;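 further: MEIS1 transcript levels read by probe hybridization and normalized to RPL28 mRNA, with IC50 fitted to fold changes across a rising compound concentration series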
# [2] = HTRF-30 min incubation IC50, 30 min incubation
# [3] = read-out: HTRF-30 min incubation IC50, 30 min incubation
Structure (SMILES),"IC50 [1, 2] [nM]","IC50 (MOLM14 cells; Homo sapiens, MOLM-14, […]) [nM]","IC50 (OCI-AML3 cells; Homo sapiens, OCI-AML-3, […]) [nM]","IC50 (KO-52 cells; Homo sapiens, […]) [nM]","IC50 (MEIS1 mRNA; Homo sapiens, MOLM-14, 48 h) [nM]","IC50 [1, 3] [nM]",IC50 (MOLM14 cells) [nM],IC50 (OCI-AML3 cells) [nM],IC50 (KO-52 cells) [nM],IC50 (MEIS1 mRNA) [nM]
"CCN(C(=O)c1cc(F)ccc1Oc1nncnc1N1CCC2(C1)CN([C@H](CN)C(C)C)C2)C(C)C (single isomer, unassigned) [Compound 24, (*S)-2-((5-(2-(1-amino-3-methylbutan-2-yl)-2,6-diazaspiro[3.4]octan-6-yl)-1,2,4-triazin-6-yl)oxy)-N-ethyl-5-fluoro-N-isopropylbenzamide]",0.97,690,2680,> 15000,~840,–,–,–,–,–
"CC(C)[C@@H](CCC(N)=O)N1CC2(CCN(c3ncnnc3Oc3ccc(F)cc3-c3cncnc3C3CC3)C2)C1 (single isomer, unassigned) [Compound 43, (*R)-4-(6-(6-(2-(4-cyclopropylpyrimidin-5-yl)-4-fluorophenoxy)-1,2,4-triazin-5-yl)-2,6-diazaspiro[3.4]octan-2-yl)-5-methylhexanamido]",0.55,290,1200,> 15000,~240,–,–,–,–,–
"CCN(C(=O)c1cc(F)ccc1Oc1nnccc1N1CCC2(C1)CN([C@H](CCCN(C)C)C(C)C)C2)C(C)C (single isomer, unassigned) [Compound 77, (*R)-2-((4-(2-(6-(dimethylamino)-2-methylhexan-3-yl)-2,6-diazaspiro[3.4]octan-6-yl)pyridazin-3-yl)oxy)-N-ethyl-5-fluoro-N-isopropylbenzamide]",–,–,–,–,–,0.51,100,1320,13700,120
"CCN(C(=O)c1cc(F)ccc1Oc1nnccc1N1CCC2(C1)CN([C@@H](CCCN(C)C)C(C)C)C2)C(C)C (single isomer, unassigned) [Compound 78, (*S)-2-((4-(2-(6-(dimethylamino)-2-methylhexan-3-yl)-2,6-diazaspiro[3.4]octan-6-yl)pyridazin-3-yl)oxy)-N-ethyl-5-fluoro-N-isopropylbenzamide]",–,–,–,–,–,3.69,> 940,12200,> 15000,> 1000
"CCN(C(=O)c1cc(F)ccc1Oc1nnccc1N1CCC2(C1)CN([C@@H](CCCN(C)CCOC)C(C)C)C2)C(C)C (single isomer, unassigned) [Compound 84, (*S)—N-ethyl-5-fluoro-N-isopropyl-2-((4-(2-(6-((2-methoxyethyl)(methyl)amino)-2-methylhexan-3-yl)-2,6-diazaspiro[3.4]octan-6-yl)pyridazin-3-yl)oxy)benzamide oxalate]",–,> 940,7170,> 15000,> 1000,–,–,–,–,–
"COCCN(C)CCC[C@H](C(C)C)N1CC2(CCN(c3ccnnc3Oc3ccc(F)cc3C(=O)N(C(C)C)C(C)C)C2)C1 (single isomer, unassigned) [Compound 88, (*R)-5-fluoro-N,N-isopropyl-2-((4-(2-(6-((2-methoxyethyl)(methyl)amino)-methylhexan-3-yl)-2,6-diazaspiro[3.4]octan-6-yl)pyridazin-3-yl)oxy)benzamide oxalate]",0.083,120,810,14000,130,–,–,–,–,–
"COCCN(C)CCC[C@@H](C(C)C)N1CC2(CCN(c3ncnnc3Oc3ccc(F)cc3C(=O)N(C(C)C)C(C)C)C2)C1 (single isomer, unassigned) [Compound 95, (*S)-5-fluoro-N,N-isopropyl-2-((5-(2-(6-((2-methoxyethyl)(methyl)amino)-methylhexan-3-yl)-2,6-diazaspiro[3.4]octan-6-yl)-1,2,4-triazin-6-yl)oxy)benzamide oxalate]",4.98,390,1620,> 15000,~620,–,–,–,–,–
"CCN(C(=O)c1cc(F)ccc1Oc1nncnc1N1CCC2(C1)CN([C@H](CCCN(C)CC(C)OC)C(C)C)C2)C(C)C (single isomer, unassigned) [Compound 254, oxalate]",4.16,590,4690,> 15000,–,–,–,–,–,–
"CCN(C(=O)c1cc(F)ccc1Oc1nncnc1N1CCC2(C1)CN([C@@H](CCCN(C)C)C(C)C)C2)C(C)C [Compound 5, (S)-2-((5-(2-(6-(dimethylamino)-2-methylhexan-3-yl)-2,6-diazaspiro[3.4]octan-6-yl)-1,2,4-triazin-6-yl)oxy)-N-ethyl-5-fluoro-N-isopropylbenzamide formate]",2.26,840,–,> 15000,~990,–,–,–,–,–
"CCN(C(=O)c1cc(F)ccc1Oc1nncnc1N1CCC2(C1)CN([C@@H](CCCNC(C)=O)C(C)C)C2)C(C)C [Compound 7, (S)-2-((5-(2-(6-acetamido-2-methylhexan-3-yl)-2,6-diazaspiro[3.4]octan-6-yl)-1,2,4-triazin-6-yl)oxy)-N-ethyl-5-fluoro-N-isopropylbenzamide]",86.2,> 3750,–,> 15000,> 2500,–,–,–,–,–
"CCN(C(=O)c1cc(F)ccc1Oc1nncnc1N1CCC2(C1)CN([C@H](CCCN(C)CC(F)F)C(C)C)C2)C(C)C [Compound 16, (R)-2-((5-(2-(6-((2,2-difluoroethyl)(methyl)amino)-2-methylhexan-3-yl)-2,6-diazaspiro[3.4]octan-6-yl)-1,2,4-triazin-6-yl)oxy)-N-ethyl-5-fluoro-N-isopropylbenzamide]",1.85,370,–,10500,~670,–,–,–,–,–
"CCN(C(=O)c1cc(F)ccc1Oc1nncnc1N1CCC2(C1)CN([C@H](CCCN(C)CC(F)(F)F)C(C)C)C2)C(C)C [Compound 21, (R)-N-ethyl-5-fluoro-N-isopropyl-2-((5-(2-(2-methyl-6-(methyl(2,2,2-trifluormethyl)amino)hexan-3-yl)-2,6-diazaspiro[3.4]octan-6-yl)-1,2,4-triazin-6-yl)oxy)benzamide]",10.4,> 940,–,> 15000,> 1000,–,–,–,–,–
"CCN(C(=O)c1cc(F)ccc1Oc1nncnc1N1CCC2(C1)CN([C@H](CCCN(C)CCOC)C(C)C)C2)C(C)C [Compound 27, (R)-N-ethyl-5-fluoro-N-isopropyl-2-((5-(2-(6-((2-methoxyethyl)(methyl)amino)-2-methylhexan-3-yl)-2,6-diazaspiro[3.4]octan-6-yl)-1,2,4-triazin-6-yl)oxy)benzamide]",–,–,91,6850,–,–,–,–,–,–
"CCN(C(=O)c1cc(F)ccc1Oc1nncnc1N1CCC2(C1)CN([C@@H](CCCN(C)CCOC)C(C)C)C2)C(C)C [Compound 28, (S)—N-ethyl-5-fluoro-N-isopropyl-2-((5-(2-(6-((2-methoxyethyl)(methyl)amino)-2-methylhexan-3-yl)-2,6-diazaspiro[3.4]octan-6-yl)-1,2,4-triazin-6-yl)oxy)benzamide]",–,600,1360,> 15000,–,–,–,–,–,–
CCN(C(=O)c1cc(F)ccc1Oc1nncnc1N1CCC2(C1)CN(C(CCNC(C)=O)C(C)C)C2)C(C)C (stereo not shown) [Compound 29],2.42,970,–,> 15000,~2250,–,–,–,–,–
"CCN(C(=O)c1cc(F)ccc1Oc1nncnc1N1CCC2(C1)CN([C@H](CCCN(CCOC)CCOC)C(C)C)C2)C(C)C [Compound 90, (R)-2-((5-(2-(6-(bis(2-methoxyethyl)amino)-2-methylhexan-3-yl)-2,6-diazaspiro[3.4]octan-6-yl)-1,2,4-triazin-6-yl)oxy)-N-ethyl-5-fluoro-N-isopropylbenzamide formate]",0.16,40,190,1000,–,–,–,–,–,–
"CCN(C(=O)c1cc(F)ccc1Oc1nnc(Cl)nc1N1CCC2(C1)CN([C@H](CCCN(C)CCOC)C(C)C)C2)C(C)C [Compound 394, (R)-2-((3-chloro-5-(2-(6-((2-methoxyethyl)(methyl)amino)-2-methylhexan-3-yl)-2,6-diazaspiro[3.4]octan-6-yl)-1,2,4-triazin-6-yl)oxy)-N-ethyl-5-fluoro-N-isopropylbenzamide fumarate]",–,110,330,> 15000,–,–,–,–,–,–
